For eight compounds, GI50 and TGI results are on record in PubChem BioAssay (NCI).

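Briefly, cells in 96-well plates were exposed to five compound concentrations for 48 h, and endpoints were estimated by linear interpolation. GI50 = concentration required for 50% inhibition of growth. TGI denotes the concentration required for complete inhibition of growth.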

Test systems include BT-549 breast; HOP-92 NSCLC; LOX IMVI melanoma; MOLT-4 leukemia; NCI-H23 lung; NCI/ADR-RES ovarian; OVCAR-8 ovarian; SNB-19 CNS; SNB-75 CNS; CAKI-1 renal.
Common to all, as to assay: growth of human tumour cells (NCI), 48 h

As for `CC[C@H](C)[C@H](NC(=O)c1ncccn1)C(=O)N(C)[C@H](C[C@@H](OC(C)=O)c1nc(C(=O)N[C@@H](Cc2ccccc2)C[C@H](C)C(=O)OC)cs1)C(C)C`, the GI50 in the assay with BT-549 breast is 1.47 µM; in the assay with HOP-92 NSCLC, 4.36 µM; with LOX IMVI melanoma, 1.46 µM; in the assay on MOLT-4 leukemia, 2.39 µM; in the assay on NCI-H23 lung, 5.4 µM; with NCI/ADR-RES ovarian, 11.7 µM. Also, the values for the GI50 in the assay on OVCAR-8 ovarian, in the assay on SNB-19 CNS and with SNB-75 CNS were 2.25 µM, 2.32 µM and 0.768 µM, respectively. Also, the TGI is 11.7 µM with BT-549 breast; above 25 µM in the assay on HOP-92 NSCLC; above 25 µM in the assay on LOX IMVI melanoma; above 25 µM in the assay on MOLT-4 leukemia; above 25 µM with NCI-H23 lung; above 25 µM in the assay on NCI/ADR-RES ovarian. Also, the TGI in the assay with OVCAR-8 ovarian, with SNB-19 CNS and in the assay with SNB-75 CNS was above 25 µM each time.
With `CC1(C)CC[C@]2(C(=O)NCCNCCN)CC[C@]3(C)C(=CC[C@@H]4[C@@]5(C)CCC(=O)C(C)(C)[C@@H]5CC[C@]43C)[C@@H]2C1`, the GI50 with BT-549 breast is 1.56 µM; in the assay on CAKI-1 renal, 1.82 µM; in the assay on HOP-92 NSCLC, 1.47 µM; in the assay with LOX IMVI melanoma, 1.81 µM; with MOLT-4 leukemia, 2.44 µM; in the assay with NCI-H23 lung, 1.9 µM. The GI50 in the assay with NCI/ADR-RES ovarian was 7.81 µM; in the assay on OVCAR-8 ovarian it was 2.15 µM; with SNB-19 CNS it was 1.73 µM. Besides, the TGI in the assay on BT-549 breast amounted to 3.26 µM; in the assay with CAKI-1 renal, 4.47 µM; with HOP-92 NSCLC, 4.4 µM; with LOX IMVI melanoma, 3.26 µM; in the assay on MOLT-4 leukemia, 6.15 µM; in the assay with NCI-H23 lung, 3.71 µM. For the same compound, the TGI is 22.7 µM in the assay with NCI/ADR-RES ovarian, 4.9 µM with OVCAR-8 ovarian and 3.23 µM with SNB-19 CNS.
Consider `O=C(Nc1ccc(Cl)cc1)c1cc(NCc2cc(O)ccc2O)ccc1O`, for which the GI50 in the assay on BT-549 breast was 1.42 µM; in the assay with CAKI-1 renal, 4.09 µM; in the assay with LOX IMVI melanoma, 4.1 µM; in the assay with MOLT-4 leukemia it was 3.28 µM; in the assay with NCI-H23 lung, 11.8 µM; with NCI/ADR-RES ovarian, 4.43 µM. For the same compound, the figures for the GI50 in the assay on OVCAR-8 ovarian, in the assay with SNB-19 CNS and with SNB-75 CNS were 4.35 µM, 8.33 µM and 1.99 µM, respectively. Besides, the TGI in the assay with BT-549 breast was 3.57 µM; with CAKI-1 renal, 18.2 µM; in the assay on LOX IMVI melanoma, 23.1 µM; in the assay on MOLT-4 leukemia, 32.9 µM; with NCI-H23 lung, 31.4 µM; in the assay with NCI/ADR-RES ovarian, 62.9 µM. The figures for the TGI in the assay on OVCAR-8 ovarian, with SNB-19 CNS and with SNB-75 CNS were 20.1 µM, 21.2 µM and 8.99 µM, respectively.
`Cn1cnc(SC2=CC(=O)C=C3S[C@H]4C[C@@]23c2c(c(O)c3c5c2=NCCC=5C=N3)N4)c1CC(N)C(=O)O` (stereo partly drawn): the GI50 is 18.7 µM in the assay on CAKI-1 renal; 17.5 µM with HOP-92 NSCLC; 4.64 µM with LOX IMVI melanoma; 2.99 µM in the assay with MOLT-4 leukemia; 23.7 µM in the assay with NCI/ADR-RES ovarian; 3.81 µM in the assay with OVCAR-8 ovarian. For the same compound, in the assay with SNB-19 CNS, the GI50 is 19.3 µM. In addition, the TGI was 33.3 µM with CAKI-1 renal; 31.7 µM in the assay on HOP-92 NSCLC; 18.6 µM in the assay with LOX IMVI melanoma; 8.98 µM in the assay on MOLT-4 leukemia; 15.2 µM in the assay on NCI-H23 lung; 56.7 µM with NCI/ADR-RES ovarian. Moreover, the TGI in the assay with OVCAR-8 ovarian turned out to be 14.5 µM; with SNB-19 CNS, 33.5 µM; with SNB-75 CNS, 34.5 µM.
Take `C/C(COc1ccc2oc(-c3ccccc3)cc(=O)c2c1)=N\O`: the GI50 in the assay on CAKI-1 renal is 32.5 µM; in the assay with HOP-92 NSCLC it was 37.4 µM; in the assay with LOX IMVI melanoma it was 1.38 µM; in the assay with MOLT-4 leukemia, 89.2 µM; in the assay on NCI-H23 lung, 88.5 µM; in the assay on NCI/ADR-RES ovarian, 36 µM. Besides, the GI50 with OVCAR-8 ovarian was above 100 µM; in the assay with SNB-19 CNS, 26.7 µM; in the assay with SNB-75 CNS, above 100 µM. The TGI in the assay with CAKI-1 renal is above 100 µM; in the assay on HOP-92 NSCLC, above 100 µM; in the assay with LOX IMVI melanoma, 3.34 µM; in the assay on MOLT-4 leukemia, above 100 µM; with NCI-H23 lung, above 100 µM; with NCI/ADR-RES ovarian, above 100 µM. Besides, the TGI in the assay on OVCAR-8 ovarian, in the assay on SNB-19 CNS and in the assay with SNB-75 CNS was above 100 µM each time.
As for `CCCCCCCCCCCCCCCCCC1=NC(C)(C)CN1C(C)(C)CO`, the GI50 in the assay with BT-549 breast is 3.28 µM; with CAKI-1 renal, 1.6 µM; with HOP-92 NSCLC it was 0.85 µM; in the assay with MOLT-4 leukemia, 1.45 µM; in the assay with NCI-H23 lung it was 1.52 µM; in the assay on SNB-19 CNS, 1.79 µM. The GI50 in the assay on SNB-75 CNS was 1.47 µM. In addition, the TGI with BT-549 breast was determined as 14 µM; with CAKI-1 renal, 3.9 µM; with HOP-92 NSCLC, 3.37 µM; with MOLT-4 leukemia it was 4.05 µM; with NCI-H23 lung it was 2.99 µM; in the assay with SNB-19 CNS, 4.54 µM. Further, in the assay on SNB-75 CNS, the TGI came to 3.13 µM.
On to `O=C1/C(=C/c2ccc(Cl)cc2)N=C(c2ccccc2)N1c1cc(C(F)(F)F)ccc1Cl`, for which the GI50 was 31 µM in the assay with CAKI-1 renal; 20.3 µM with HOP-92 NSCLC; 16.5 µM in the assay on LOX IMVI melanoma; 15.5 µM with MOLT-4 leukemia; 34.4 µM in the assay on NCI-H23 lung; 22.3 µM in the assay with NCI/ADR-RES ovarian. For the same compound, the GI50 in the assay on OVCAR-8 ovarian is 28.6 µM; with SNB-19 CNS it was 36.4 µM; in the assay with SNB-75 CNS, 18.6 µM. Also, the TGI was 69.5 µM with CAKI-1 renal; 58.5 µM in the assay on HOP-92 NSCLC; 41.2 µM in the assay on LOX IMVI melanoma; 51.2 µM with MOLT-4 leukemia; above 100 µM with NCI-H23 lung; 77.6 µM with NCI/ADR-RES ovarian. Further, the results for the TGI in the assay on OVCAR-8 ovarian, with SNB-19 CNS and in the assay with SNB-75 CNS were above 100 µM, above 100 µM and 78.7 µM, respectively.
With `Oc1c(CN2CCCCC2)ccc2cccnc12`, the GI50 was 10.4 µM in the assay with BT-549 breast; 0.52 µM in the assay on CAKI-1 renal; 3.6 µM in the assay with LOX IMVI melanoma; 3.97 µM with MOLT-4 leukemia; 6.84 µM in the assay with NCI-H23 lung; 0.955 µM with NCI/ADR-RES ovarian. Besides, the GI50 is 3.18 µM with OVCAR-8 ovarian, 8.86 µM in the assay on SNB-19 CNS and 5.67 µM in the assay on SNB-75 CNS. Moreover, the TGI in the assay on BT-549 breast is above 100 µM; in the assay with CAKI-1 renal, 3.23 µM; in the assay with LOX IMVI melanoma, 17.3 µM; with MOLT-4 leukemia, above 100 µM; with NCI-H23 lung it was 36.1 µM; in the assay on NCI/ADR-RES ovarian, 10.9 µM. Besides, the TGI is 22.8 µM with OVCAR-8 ovarian, above 100 µM in the assay with SNB-19 CNS and 74.3 µM with SNB-75 CNS.
